Four molecules from publication PMC9409351, “Differential Ganglioside and Cholesterol Depletion by Various Cyclodextrin Derivatives and Their Effect on Synaptosomal Glutamate Release” (International Journal of Molecular Sciences, 2022) can be followed below.

Test [1] concerns gangliosides (GM1, GD1a, GD1b, GT1b, GQ1b) of rat cerebral synaptosomes. Description: Ganglioside depletion from synaptosomes, remaining content by capillary electrophoresis. It is filed as cell-based. The note with it: for IC50: rat cerebral synaptosomes, 40 min exposure. As for the experimental part: (§1) Adult male Wistar rats purchased from Toxi-Coop Ltd. (Budapest, Hungary) were used in the experiments. Cerebral synaptosomes were prepared according to Modi and co-workers with the following modifications. Animals were decapitated and the brain was removed rapidly. Isotonic sucrose buffer (0.32 M sucrose, 4 mM HEPES-NaOH, pH 7.4) was used to homogenize the cerebrum with a Potter S Homogenizer (B. Braun, Melsungen, Germany) with 15 strokes at 1000 rpm. The homogenate was centrifuged (1500× g, 10 min, 4 °C) and the pellet was resuspended in sucrose buffer and centrifuged with the same parameters again. The two supernatants were combined and centrifuged (20,000× g, 10 min, 4 °C) to pellet the crude synaptosomes. The resulting supernatant was discarded and the pellet was washed again with an equal volume of sucrose buffer and then pelleted by centrifugation (20,000× g, 10 min, 4 °C). Synaptosomes were stored frozen using cryopreservation buffer and the slow freezing method to preserve their physiological state and integrity. Briefly, synaptosome pellets were resuspended in isotonic sucrose buffer containing 10% DMSO (v/v) and 10% FBS (v/v). To slow down the freezing process at −80 °C, synaptosomes were placed in a 3 cm thick-walled polystyrene box with a lid. Synaptosomes were stored at −80 °C until use. Immediately prior to the experiments, synaptosomes were rapidly thawed in a 37 °C water bath and pelleted by centrifugation (20,000× g, 10 min, 4 °C) to remove the cryopreservation buffer. The pellet was resuspended in isotonic HEPES-glucose buffer (10 mM HEPES-NaOH, 130 mM NaCl, 5.4 mM KCl, 1.3 mM CaCl2, 0.9 mM MgCl2, 5.5 mM glucose, pH 7.4) and aliquoted according to the experimental design.
(§2) For all types of experiments, except for the glutamate release measurements, vehicle-treated (control) and CD-treated synaptosomes were incubated in 500 μL HEPES-glucose buffer with or without CDs, respectively, for 40 min at 37 °C. […] After incubation, the synaptosomes were centrifuged (20,000× g, 5 min, 4 °C) and used immediately for further analysis. A slightly different incubation method used in the glutamate release measurements is described in the corresponding section. Across all types of experiments, osmolarities of the CD solutions were adjusted and they were between 290 and 310 mOsm. At least three parallel measurements were carried out.
The major neuronal ganglioside (GM1, GD1a, GD1b, GT1b, GQ1b) content of the rat cerebral synaptosome samples were measured by our previously published validated method. Briefly, after the CD treatments, gangliosides were extracted from 10 mg synaptosomes by liquid–liquid extraction. Ganglioside extracts were evaporated to dryness under a gentle stream of nitrogen (Zymark TurboVap LV, Hopkinton, MA, USA) in a 37 °C water bath. The dry ganglioside extract yielded from 10 mg synaptosomes was resuspended in 60 µL water, and centrifuged (20,000× g, 5 min, 4 °C) to remove the precipitate and the supernatant was analyzed by CE.
Ganglioside analysis was performed on a P/ACE MDQ capillary electrophoresis system (Beckman Coulter Inc., Brea, CA, USA) with UV detection at 200 nm. Uncoated fused silica capillaries with 75 µm internal diameter, […], respectively (Agilent Technologies, Santa Clara, CA, USA), were used. Separation was achieved by applying +25 kV voltage in a separation buffer containing 20 mM RAMEA and 100 mM sodium borate at pH 10.0. Ganglioside depletion in the CD-treated synaptosomes was calculated as the percentage of the ganglioside content of the vehicle-treated synaptosomes.
Data were analyzed by GraphPad Prism 8 (GraphPad Software, La Jolla, CA, USA). Concentration–response curves were constructed by the nonlinear regression method. One-way ANOVA followed by Bonferroni’s post hoc test was used for the data analysis in the case of the glutamate release experiments. […]

Test [2] relates to cholesterol content of rat cerebral synaptosomes. Description: Cholesterol depletion from synaptosomes, Cholesterol Fluorometric Assay Kit. It is filed as cell-based. The conditions noted are these: for IC50: rat cerebral synaptosomes, 40 min exposure, 37 °C; for Cholesterol depletion in the tested concentration range: tested concentration range 0.3–100 mM. As for the experimental part:
as §1, §2
The cholesterol levels of the rat cerebral synaptosomes were measured with a Cholesterol Fluorometric Assay Kit (Cayman Chemical Company, Ann Arbor, MI, USA) with minor adjustments for the sample preparation. Briefly, after CD treatments, 2 mg of the synaptosomes were extracted with 10 vol chloroform–methanol 2:1 (v/v) to gain a lipid extract. The samples were centrifuged (20,000× g, 5 min, 4 °C) and then the supernatant was evaporated to dryness under a nitrogen stream (Zymark TurboVap LV) in a 37 °C water bath. The extracts were resuspended and diluted in the assay buffer (1.2 mL/mg synaptosome). Further preparation of the assay was according to the manufacturer’s protocol. Fluorescence was measured with a Varioskan LUX multimode microplate reader (Thermo Fisher Scientific, Waltham, MA, USA) at 530/590 nm. Cholesterol depletion in the CD-treated synaptosomes was calculated as the percentage of the cholesterol content of the vehicle-treated synaptosomes.
Data were analyzed by GraphPad Prism 8 (GraphPad Software, La Jolla, CA, USA). Concentration–response curves were constructed by the nonlinear regression method. One-way ANOVA followed by Bonferroni’s post hoc test was used for the data analysis in the case of the glutamate release experiments. All data are presented as means ± SEM of at least three parallel measurements. Differences were considered significant if p < 0.05.

Where [3] appears, read: total = sum of individual gangliosides, read-out: Total ganglioside depletion IC50.

Read-outs that look alike come from different tables or passages of the source.

Regarding `COC[C@H]1O[C@@H]2O[C@H]3[C@H](O)[C@@H](OC)[C@@H](O[C@H]4[C@H](O)[C@@H](OC)[C@@H](O[C@H]5[C@H](O)[C@@H](OC)[C@@H](O[C@H]6[C@H](O)[C@@H](OC)[C@@H](O[C@H]7[C@H](O)[C@@H](OC)[C@@H](O[C@H]8[C@H](O)[C@@H](OC)[C@@H](O[C@H]1[C@H](O)[C@H]2OC)O[C@@H]8COC)O[C@@H]7COC)O[C@@H]6COC)O[C@@H]5COC)O[C@@H]4COC)O[C@@H]3COC` [DIMEB, heptakis(2,6-di-O-methyl)-beta-cyclodextrin], the “Ganglioside extraction at 10 mM” value in test [1] (10 mM) is “approximately 50%”. Also, the “Ganglioside extraction at 30 mM” value in test [1] (30 mM) is reported as “Nearly total extraction”. The IC50 stood at 9.7 mM in test [1] (read-out: GD1a depletion IC50); 14.5 mM in test [1] (read-out: GD1b depletion IC50); 15 mM in test [1] (read-out: GM1 depletion IC50); 11.4 mM in test [1] (read-out: GQ1b depletion IC50); 8.7 mM in test [1] (read-out: GT1b depletion IC50); 10.5 mM in test [1] (setting [3]). For the same molecule, half-maximal inhibition in test [2] (IC50) was put at 7.4 mM. Further, the “Cholesterol extraction at 10 mM” value in test [2] (10 mM) was “approximately 50%”. Also, the “Cholesterol extraction at 30 mM” value in test [2] (30 mM) is listed as “Nearly total extraction”.
Consider `CC(O)COC[C@H]1O[C@@H]2O[C@H]3[C@H](O)[C@@H](O)[C@@H](O[C@H]4[C@H](O)[C@@H](O)[C@@H](O[C@H]5[C@H](O)[C@@H](O)[C@@H](O[C@H]6[C@H](O)[C@@H](O)[C@@H](O[C@H]7[C@H](O)[C@@H](O)[C@@H](O[C@H]8[C@H](O)[C@@H](O)[C@@H](O[C@H]1[C@H](O)[C@H]2O)O[C@@H]8COCC(C)O)O[C@@H]7COCC(C)O)O[C@@H]6COCC(C)O)O[C@@H]5COCC(C)O)O[C@@H]4COCC(C)O)O[C@@H]3COCC(C)O` (stereo partly drawn) [HPBCD, (2-hydroxypropyl)-beta-cyclodextrin], for which the IC50 is 83.7 mM in test [1] (40 min, read-out: GD1a depletion IC50); 86.6 mM in test [1] (40 min, read-out: GD1b depletion IC50); 80.8 mM in test [1] (40 min, read-out: GM1 depletion IC50); 85.1 mM in test [1] (40 min, read-out: GQ1b depletion IC50); 80.1 mM in test [1] (40 min, read-out: GT1b depletion IC50); 83.3 mM in test [1] (40 min, total = sum of individual gangliosides, read-out: Total ganglioside depletion IC50). In test [2] (40 min), the IC50 was found to be 33.5 mM. Moreover, the “Ganglioside loss at 50% cholesterol depleting concentration” value in test [1] (at 50% cholesterol depleting concentration) is recorded as ~ 5%.
Take “(2-hydroxypropyl)-alpha-cyclodextrin [HPACD]”: the “Ganglioside extraction at highest examined concentration” value in test [1] (100 mM) is reported as ~ 60%. Further, the 50% inhibitory concentration (IC50) in test [1] (read-out: GD1a depletion IC50) turned out to be 72.9 mM; in test [1] (read-out: GD1b depletion IC50), 90.6 mM; in test [1] (read-out: GM1 depletion IC50), 86.7 mM; in test [1] (read-out: GQ1b depletion IC50), 61.2 mM; in test [1] (setting [3]), 85.1 mM. In addition, the “Cholesterol depletion in the tested concentration range” value in test [2] is recorded as “without affecting the cholesterol content”.
In the case of “randomly methylated alpha-cyclodextrin [RAMEA]”, the IC50 came out at 25.1 mM in test [1] (read-out: GD1a depletion IC50); 26.4 mM in test [1] (read-out: GD1b depletion IC50); 29.1 mM in test [1] (read-out: GM1 depletion IC50); 30.3 mM in test [1] (read-out: GQ1b depletion IC50); 24.2 mM in test [1] (read-out: GT1b depletion IC50); 26 mM in test [1] (setting [3]). The “Cholesterol depletion in the tested concentration range” value in test [2] is listed as “without affecting the cholesterol content”.

A word on the IC50: it is the concentration that inhibits the measured activity by half.
